Measurements published in ChEMBL document CHEMBL1121390, “Rm values and structure-activity relationship of benzodiazepines” (J Med Chem, 1980).

Columns and labels:
[1] = organism: Rattus norvegicus; test: Fourfod increase in lever pressing in punished rats, ED50 value reported as log1/C; format: functional
[2] = Partition coefficient (logP); format: physicochemical; settings: octanol/water
[3] = organism: Rattus norvegicus; test: Halving of lever pressing in non punished rats, ED50 value reported as log 1/C; format: functional
[4] = organism: Rattus norvegicus; test: ED50 value was reported as log1/C, which is the concentration required to reduce locomotor activity by 50% in rats; format: functional

Row | SMILES | Log 1/C [1] | logP [2] | Log 1/C [3] | Log 1/C [4]
1 | CN1C(=O)CN=C(c2ccccc2Cl)c2cc(Cl)ccc21 | 2.824 | 3.25 | 2.409 | 2.409
2 | CCCC(CCC)C(=O)OC1N=C(c2ccccc2)c2cc(Cl)ccc2NC1=O (stereo not drawn) | – | 5.25 | – | 0.503
3 | CN1C(=O)CN=C(C2C=CCCC2)c2cc(Cl)ccc21 (stereo not drawn) | – | 2.76 | – | –
4 | O=C1C(O)N=C(c2ccccc2Cl)c2cc(Cl)ccc2N1CCO (stereo not drawn) | 1.959 | 1.94 | 1.711 | 2.005
5 | O=C1C(O)N=C(c2ccccc2)c2cc([N+](=O)[O-])ccc2N1CCO (stereo not drawn) | – | 0.72 | – | 0.34
6 | CC(=O)OC1N=C(c2ccccc2)c2cc(Cl)ccc2N(CCO)C1=O (stereo not drawn) | – | 2.01 | – | –
7 | CNC1C[N+]([O-])=C(c2ccccc2)c2cc(Cl)ccc2N1 (stereo not drawn) | 1.578 | 2.5 | 1.277 | 1.628
8 | CCOC1N=C(c2ccccc2)c2cc(Cl)ccc2N(CCOC(C)=O)C1=O (stereo not drawn) | – | 2.87 | – | –
9 | CCN(CC)CCN1C(=O)C(O)N=C(c2ccccc2)c2cc(Cl)ccc21 (stereo not drawn) | – | 1.67 | – | –
10 | O=C(O)CCC(=O)OCCN1C(=O)C[N+]([O-])=C(c2ccccc2)c2cc(Cl)ccc21 | – | 0.19 | – | 0.762
11 | O=C1C(O)N=C(c2ccccc2)c2cc(Cl)ccc2N1CCCO (stereo not drawn) | – | 1.87 | – | –
12 | CC(=O)OCCCN1C(=O)C(OC(C)=O)N=C(c2ccccc2)c2cc(Cl)ccc21 (stereo not drawn) | – | 3 | – | –
13 | O=C1C[N+]([O-])=C(c2ccccc2)c2cc(Cl)ccc2N1CCO | – | 0.44 | – | 0.346
14 | CNC(=O)N1C(=O)CN=C(c2ccccc2)c2cc([N+](=O)[O-])ccc21 | – | 1.95 | – | –
15 | O=C1C(O)N=C(c2ccccc2)c2cc(Cl)ccc2N1CCO (stereo not drawn) | 0.361 | 1.35 | 0.42 | 0.797
16 | CCOC1N=C(c2ccccc2)c2cc(Cl)ccc2N(CCCl)C1=O (stereo not drawn) | – | 3.95 | – | 0.193
17 | CCN(CC)CCN1C(=O)C(O)N=C(c2ccccc2F)c2cc(Cl)ccc21 (stereo not drawn) | – | 1.68 | – | –
18 | COc1cc(C(=O)OC2N=C(c3ccccc3)c3cc(Cl)ccc3NC2=O)cc(OC)c1OC (stereo not drawn) | – | 3.54 | – | 0.358
19 | CC(=O)OCCN1C(=O)C(OC(C)=O)N=C(c2ccccc2)c2cc(Cl)ccc21 (stereo not drawn) | – | 2.48 | – | –
20 | O=C1C[N+]([O-])=C(c2ccccc2)c2ccccc2N1 | – | 1.46 | – | –
21 | O=C(O)CCC(=O)OC1N=C(c2ccccc2)c2cc(Cl)ccc2NC1=O (stereo not drawn) | – | 1.41 | – | 1.381

Row | SMILES | Log 1/C [1] | logP [2] | Log 1/C [3] | Log 1/C [4]
22 | CCN(CC)CCN1C(=O)C(O)N=C(c2ccccc2Cl)c2cc(Cl)ccc21 (stereo not drawn) | – | 2.26 | – | –
23 | O=C1Nc2ccc(Cl)cc2C(c2ccccc2F)=NC1O (stereo not drawn) | 2.36 | 1.48 | 2.045 | 2.501
24 | CCOC1N=C(c2ccccc2)c2cc(Cl)ccc2N(CCO)C1=O (stereo not drawn) | – | 2.4 | – | –
25 | O=C1CN=C(c2ccccc2F)c2cc(Cl)ccc2N1 | 2.284 | 2.15 | 1.825 | 2.046
26 | O=C1CN=C(c2ccccc2Cl)c2cc([N+](=O)[O-])ccc2N1 [CLONAZEPAM] | – | 2.41 | – | –
27 | O=C1CN=C(c2ccccc2Cl)c2cc(Cl)ccc2N1 [DELORAZEPAM] | 2.678 | 2.73 | 2.509 | 2.79
28 | CN1C(=O)CN=C(c2ccccc2)c2cc(Cl)ccc21 [DIAZEPAM] | 1.876 | – | 1.659 | 1.793
29 | O=C1C(O)N=C(c2ccccc2F)c2cc(Cl)ccc2N1CCO (stereo not drawn) [DOXEFAZEPAM] | 1.648 | 1.36 | 1.697 | 2.239
30 | CN1C(=O)CN=C(c2ccccc2F)c2cc(Cl)ccc21 [FLUDIAZEPAM] | 2.721 | 2.67 | 2.417 | 2.598
31 | CCN(CC)CCN1C(=O)CN=C(c2ccccc2F)c2cc(Cl)ccc21 [FLURAZEPAM] | 1.745 | 2.35 | 1.291 | 1.943
32 | CN1C(=O)C(O)N=C(c2ccccc2F)c2cc(Cl)ccc21 (stereo not drawn) [FLUTEMAZEPAM] | 2.585 | 2 | 2.371 | 2.81
33 | O=C1CN=C(c2ccccc2)c2cc(Cl)ccc2N1CC(F)(F)F [HALAZEPAM] | – | 3.73 | – | 1.097
34 | O=C1Nc2ccc(Cl)cc2C(c2ccccc2Cl)=NC1O (stereo not drawn) [LORAZEPAM] | 2.444 | – | 2.897 | 3.145
35 | CN1C(=O)C(O)N=C(c2ccccc2Cl)c2cc(Cl)ccc21 (stereo not drawn) [LORMETAZEPAM] | 2.658 | 2.58 | 2.394 | 2.594
36 | CN1CCN=C(c2ccccc2)c2cc(Cl)ccc21 [MEDAZEPAM] | – | 4.05 | – | 1.443
37 | O=C1CN=C(c2ccccc2)c2cc([N+](=O)[O-])ccc2N1 [NITRAZEPAM] | – | 2.12 | – | 2.326
38 | O=C1CN=C(c2ccccc2)c2cc(Cl)ccc2N1 [NORDAZEPAM] | 1.83 | – | 0.832 | 1.247
39 | O=C1Nc2ccc(Cl)cc2C(c2ccccc2)=NC1O (stereo not drawn) [OXAZEPAM] | 1.192 | – | 0.961 | 1.191
40 | O=C1CN=C(c2ccccc2)c2cc(Cl)ccc2N1CC1CC1 [PRAZEPAM] | – | 3.72 | – | 0.709
41 | CN1C(=O)C(O)N=C(c2ccccc2)c2cc(Cl)ccc21 (stereo not drawn) [TEMAZEPAM] | 1.883 | – | 1.228 | 1.629
